In patent US20250000043A1, “NON-TRANSGENIC SUNFLOWER PLANTS HAVING INCREASED TOLERANCE TO HERBICIDES” (BASF Agricultural Solutions Seed US LLC, priority 2021, published 2025):

What was measured:
[1] = test system: susceptible wild type (HA452) line; test: Greenhouse re-assessment of saflufenacil tolerance, wild type reference (Example 3); format: in vivo, Helianthus annuus
Excerpt: As it is not uncommon that in forward field mutant screening for herbicide tolerance ‘false’ tolerant plants are selected, the field candidates were reassessed in the greenhouse. Field harvested seeds of the mutant lead LIH16358 were planted in the greenhouse on Nov. 26, 2019, in Limburgerhof, Germany. The greenhouse trial had the objective to verify if the progeny of mutant lead LIH16358 would survive treatment with saflufenacil. Seeds of the susceptible wild type (HA452) line were planted in the same greenhouse trial as the susceptible reference. Saflufenacil was sprayed at 2.5 g a.i./ha on Dec. 10, 2019. The 2.5 g a.i./ha of saflufenacil corresponds to 12.5 g a.i./ha in field conditions. The final phytotoxicity evaluation in the treated plants was done on Dec. 24, 2019.
The tolerant progeny individuals of mutant lead LIH16358 produced seeds, which were planted in a follow up greenhouse trial on May 19, 2020. The plants were sprayed with 2.0 g a.i./ha of saflufenacil on Jun. 3, 2020.

PPO2_F383I mutant lines = test: Advanced field trial with saflufenacil, Utrera 2021 (Example 4); format: in vivo, Helianthus annuus
Description: M6 seed of eleven lines all originating from the nine plants carrying the PPO2_F383I mutation but with a different pedigree were assessed in an advanced field trial. The advanced field trial was manually planted in Utrera, Spain, on May 3, 2021. One row per mutant entry per plot was considered, and thirty-two seeds were planted per mutant entry per row per plot. Saflufenacil was applied in four increasing rates (0×: 0 g a.i/ha, 0.5×=12.5 g a.i./ha; 1×=25 g a.i./ha and 2×=50 g a.i./ha) when plants were at the BBCH12-14 growth stage. Saflufenacil application took place on Jul. 26, 2021. The field trial design was a strip-block design with four replications.
Phytotoxicity evaluations were done at 2, 5, 12, 19 and 26 days after treatment (DAT) with saflufenacil. As discussed previously, phytotoxicity of the mutant entries and wild type control were scored in each of the evaluation days after saflufenacil treatment. Eleven mutant lines were tested. The field tested one mutant line per row 32 seeds per row, for each saflufenacil rate treatment and replication, this means every plot was made of a single row, so the plot was the row for each mutant line. The phytotoxicity % score was given for each row in comparison to the untreated row of the same mutant line (control), meaning all 11 mutant lines were assessed for phytotoxicity % in all treatments and replications. Phytotoxicity was visually recorded at each evaluation time after saflufenacil application on a per plot basis based on the rating scale table (below).
To better reflect the tolerance of surviving plants, data were expressed in percent herbicide tolerance efficacy by using the formula below:
where: • 0% means no tolerance • 100% means full tolerance

SMILES: CC(C)N(C)S(=O)(=O)NC(=O)c1cc(-n2c(=O)cc(C(F)(F)F)n(C)c2=O)c(F)cc1Cl [Saflufenacil]
- phytotoxicity ([1]; 2.0 g a.i./ha, 14 DAT): 100%
- control of wild type reference plants ([1]; 2.5 g a.i./ha): completely controlled and dead
- survival and seed production (PPO2_F383I mutant lines; 50 g a.i./ha in the field): survive and produce seeds
- impact on days to 50% flowering versus untreated (PPO2_F383I mutant lines; across entries and saflufenacil rates): ≤ 5 days
- tolerance efficacy (%) (PPO2_F383I mutant lines; all eleven mutant lines, all rates (12.5, 25, 50 g a.i./ha)): high tolerance efficacy
- plant recovery (PPO2_F383I mutant lines; all rates including 2x (50 g a.i./ha)): start to significantly recover at 19 DAT
- phytotoxicity at peak, compared to untreated controls (PPO2_F383I mutant lines; eleven mutant entries, field, 12.5, 25 and 50 g a.i./ha): higher than 15%
- plant height, treated versus untreated (PPO2_F383I mutant lines; when flowering was completed, 73 DAT): untreated plants showed a greater plant height compared to treated plants
